Calls of active or inactive are those of the source.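 How the source made its calls: active means mean IC50 below 20 µM in each of the two panels, so potent in both; inactive means the rest.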
Target: Neuropilin-1 (Homo sapiens) (UniProt O14786)
Experiment: blockers of CendR peptide binding to NRP-1 – biochemical, FP and AlphaScreen panel, dose response (AID 651650)
Conditions: NRP-1 b1b2 / RPARPAR peptide binding, FP or AlphaScreen
[1] = AlphaScreen, run 1, individual panel run IC50
[2] = FP, run 1, individual panel run IC50
[3] = FP, run 2, individual panel run IC50

Neuropilin-1 (Homo sapiens), sequence (O14786 whole entry, looked up): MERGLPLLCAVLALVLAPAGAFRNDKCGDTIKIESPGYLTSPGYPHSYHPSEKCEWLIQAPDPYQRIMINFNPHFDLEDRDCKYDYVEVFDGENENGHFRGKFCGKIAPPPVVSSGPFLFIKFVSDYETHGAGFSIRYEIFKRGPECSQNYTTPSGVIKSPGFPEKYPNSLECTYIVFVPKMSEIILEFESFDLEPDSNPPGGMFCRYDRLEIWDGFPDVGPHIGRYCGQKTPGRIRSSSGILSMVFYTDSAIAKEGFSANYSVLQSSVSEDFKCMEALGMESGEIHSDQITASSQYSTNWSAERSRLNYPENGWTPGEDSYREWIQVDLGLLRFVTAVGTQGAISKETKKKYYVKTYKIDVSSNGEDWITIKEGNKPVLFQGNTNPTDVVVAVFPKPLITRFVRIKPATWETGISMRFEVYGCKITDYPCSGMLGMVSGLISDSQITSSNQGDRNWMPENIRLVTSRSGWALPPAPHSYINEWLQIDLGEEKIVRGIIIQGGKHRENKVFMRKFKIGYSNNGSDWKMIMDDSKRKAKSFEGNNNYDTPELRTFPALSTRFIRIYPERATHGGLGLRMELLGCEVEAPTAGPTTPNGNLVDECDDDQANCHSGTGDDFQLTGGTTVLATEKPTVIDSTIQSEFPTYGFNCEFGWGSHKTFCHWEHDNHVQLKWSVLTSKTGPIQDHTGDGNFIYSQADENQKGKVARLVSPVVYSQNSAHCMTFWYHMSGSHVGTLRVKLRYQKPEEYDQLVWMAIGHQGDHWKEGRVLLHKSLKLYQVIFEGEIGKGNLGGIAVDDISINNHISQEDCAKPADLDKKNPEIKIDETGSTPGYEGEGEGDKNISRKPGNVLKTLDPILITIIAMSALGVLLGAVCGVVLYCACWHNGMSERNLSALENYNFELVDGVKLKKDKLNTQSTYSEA

SMILES | IC50 (AlphaScreen, mean of runs) | IC50 [1] [µM] | IC50 (FP, mean of runs) | IC50 [2] [µM] | IC50 [3] [µM]
CCOC(=O)C1(O)CC(C)=NN1C(=O)c1cccc(Br)c1 (stereo not given) | > 100 µM (inactive) | > 100 | > 95 µM (inactive) | > 95 | > 95
O=C(Nc1ccc(F)cc1)c1cc(S(=O)(=O)Nc2ccc(F)cc2)cs1 | > 100 µM (inactive) | > 100 | > 95 µM (inactive) | > 95 | > 95
Cc1ccc2c(c1)C(c1ccncc1)=NNC(c1ccc(F)cc1)=N2 | > 100 µM (inactive) | > 100 | > 95 µM (inactive) | > 95 | > 95
O=C(CSc1nc2ccccc2c(=O)n1-c1ccc(F)cc1F)Nc1ccc2c(c1)CCC2 | > 100 µM (inactive) | > 100 | > 95 µM (inactive) | > 95 | > 95
COc1ccc(NC(=O)CN(C)CC(=O)Nc2cccc(F)c2)cc1Cl | inactive | 35.5 | > 95 µM (inactive) | > 95 | > 95
CCCc1c(O)c2ccccc2[nH]c1=O | > 100 µM (inactive) | > 100 | > 95 µM (inactive) | > 95 | > 95
CCOC(=O)CNc1ccc2c(c1)OCO2 | inactive | 27.8 | inactive | > 95 | 38.7
CC(=O)N1CCSc2ccc(S(=O)(=O)Nc3ccc(C)cc3)cc21 | > 100 µM (inactive) | > 100 | > 95 µM (inactive) | > 95 | > 95
COc1cc(C(=O)NCc2ccccc2)cc(Br)c1OC | > 100 µM (inactive) | > 100 | > 95 µM (inactive) | > 95 | > 95
O=C(c1cccc(F)c1)N1CCN(c2ccc([N+](=O)[O-])c(N3CCCCC3)c2)CC1 | > 100 µM (inactive) | > 100 | > 95 µM (inactive) | > 95 | > 95
O=C(NNC(=O)c1ccccc1Cl)c1cccnc1 | 19.2 µM | 19.2 | > 95 µM (inactive) | > 95 | > 95
Cc1ccc(NC(=O)c2ccc3c(c2)OCCO3)cc1S(=O)(=O)Nc1cccc(Cl)c1 | > 100 µM (inactive) | > 100 | > 95 µM (inactive) | > 95 | > 95
CCCCn1nnnc1C(c1cc2ccccc2o1)N(C)Cc1ccc(Cl)c(Cl)c1 (stereo not given) | 12.7 µM | 12.7 | > 95 µM (inactive) | > 95 | > 95
C=CCN1C(=O)C2(C(C(=O)OCC)=C(N)Oc3ccccc32)c2c1c1ccccc1oc2=O (stereo not given) | > 100 µM (inactive) | > 100 | > 95 µM (inactive) | > 95 | > 95
COc1ccc(C(=O)N[C@H](C(=O)Nc2nc3c(s2)CCCC3)C(C)C)cc1 | > 100 µM (inactive) | > 100 | > 95 µM (inactive) | > 95 | > 95
O=C(NCc1ccccc1)c1cccc(S(=O)(=O)N2CCCCC2)c1 | inactive | 39.8 | > 95 µM (inactive) | > 95 | > 95
O=C(Nc1cccc(S(=O)(=O)N2CCCCC2)c1)c1ccc([N+](=O)[O-])o1 | > 100 µM (inactive) | > 100 | > 95 µM (inactive) | > 95 | > 95

SMILES | IC50 (AlphaScreen, mean of runs) | IC50 [1] [µM] | IC50 (FP, mean of runs) | IC50 [2] [µM] | IC50 [3] [µM]
COc1cc(OC)nc(NC(=O)COC(=O)c2cccc(Cl)c2)n1 | inactive | 27.1 | > 95 µM (inactive) | > 95 | > 95
Cc1ccc(CN(CC(=O)NC2CCCCC2)C(=O)c2csnn2)cc1 | > 100 µM (inactive) | > 100 | > 95 µM (inactive) | > 95 | > 95
FC(F)(F)c1cc(C(F)(F)F)c2ccc(Oc3ccccc3)nc2n1 | > 100 µM (inactive) | > 100 | > 95 µM (inactive) | > 95 | > 95
Cc1ccc(S(=O)(=O)N2[C@@H](c3ccc(Cl)cc3)C(C(=O)OC(C)(C)C)=CC[C@H]2c2ccc(Cl)c(Cl)c2)cc1 | inactive | 41 | > 95 µM (inactive) | > 95 | > 95
CC(C)(C)OC(=O)N1CCC(NC(=O)c2nc[nH]c2C(=O)N2CCc3ccccc3C2)CC1 | > 100 µM (inactive) | > 100 | > 95 µM (inactive) | > 95 | > 95
OCCC1CCCCN1CC(O)COCc1ccc(Cl)cc1 (stereo not given) | > 100 µM (inactive) | > 100 | > 95 µM (inactive) | > 95 | > 95
COc1cc(C(=O)OCCCOC(=O)c2cc(OC)c(OC)c(OC)c2)cc(OC)c1OC | > 100 µM (inactive) | > 100 | > 95 µM (inactive) | > 95 | > 95
Cc1ccc(Nc2c(-c3ccccc3O)nc3ncccn23)cc1 | > 100 µM (inactive) | > 100 | > 95 µM (inactive) | > 95 | > 95
Cc1ccnc(N2CCC(C(=O)Nc3ccc4c(c3)OCCO4)CC2)n1 | > 100 µM (inactive) | > 100 | > 95 µM (inactive) | > 95 | > 95
Cc1[nH]n(-c2ccccc2)c(=S)c1C=Nc1cccc([N+](=O)[O-])c1 | > 100 µM (inactive) | > 100 | > 95 µM (inactive) | > 95 | > 95
Cn1c(SCc2nc3ccccc3s2)nnc1-c1cccs1 | inactive | 46.6 | > 95 µM (inactive) | > 95 | > 95
COC(=O)C1N[C@@H]([C@@H](NC(=O)COc2ccccc2)C(=O)NCc2ccccc2)SC1(C)C (stereo not given in full) | > 100 µM (inactive) | > 100 | > 95 µM (inactive) | > 95 | > 95
COc1ccc(C(=O)N2CCC(C(=O)NCc3ccccn3)CC2)cc1 | > 100 µM (inactive) | > 100 | > 95 µM (inactive) | > 95 | > 95
O=C(NNC(=O)c1csc(N2CCOCC2)n1)c1ccc(=O)[nH]c1 | > 100 µM (inactive) | > 100 | > 95 µM (inactive) | > 95 | > 95
COc1ccc(C(O)c2nc(-c3ccc4ccccc4c3)cs2)cc1 (stereo not given) | > 100 µM (inactive) | > 100 | > 95 µM (inactive) | > 95 | > 95
Cc1cnc(C(=O)OCC(=O)Nc2sc3c(c2C#N)CCC3)cn1 | > 100 µM (inactive) | > 100 | > 95 µM (inactive) | > 95 | > 95

From PubChem BioAssay AID651650 (Sanford-Burnham Center for Chemical Genomics, 2012)
